Five molecules from the supplement of paper PMC8149375 can be followed below.

A value given as a limit tells only on which side of the number the result lay.

Common to all, as to settings: treatment: drug alone; 5 days
Assay [1] concerns SN12C. Nature of the assay: GI50, drug alone; higher = less potent. The method, then:
(§1)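 Primary HTS: 8 RCC cell lines treated with 8 doses (up to 10 uM) of each library drug alone for 5 days; viability read by CellTiter-Glo and normalised to DMSO. GI50 was fitted with XLfit (4-parameter), AUC is the area under the dose-response curve, and minimum viability is the lowest fraction of DMSO viability across doses.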

Assay [2] concerns 769-P. Kind of assay: GI50, drug alone; higher = less potent. The method, then:
as §1

The subject of assay [3] is TK-10. Nature of the assay: GI50, drug alone; higher = less potent. The method, then:
as §1

For assay [4], the system named is ACHN. Kind of assay: GI50, drug alone; higher = less potent. The method, then:
as §1

For assay [5], the system named is 786-O. Nature of the assay: GI50, drug alone; higher = less potent. The method, then: as §1
In assay [6] the test system is UO-31. Kind of assay: GI50, drug alone; higher = less potent. The method, then:
as §1

For assay [7], the system named is CAKI-1. Kind of assay: GI50, drug alone; higher = less potent. The method, then:
as §1

Assay [8] deals with A498. Nature of the assay: GI50, drug alone; higher = less potent. The method, then:
as §1

The test system of assay [9] is SN12C. Kind of assay: minimum viability across doses, drug alone, relative to DMSO (fraction); higher = less growth inhibition. The method, then: as §1
Assay [10] concerns 769-P. Described as above. The method, then:
as §1

In assay [11] the test system is TK-10. Described as above. The method, then:
as §1

Assay [12] concerns ACHN. The description is as above. The method, then:
as §1

The subject of assay [13] is 786-O. Described as above. The method, then:
as §1

The test system of assay [14] is UO-31. Described as above. The method, then:
as §1

The subject of assay [15] is CAKI-1. The description is as above. The method, then: as §1
For assay [16], the system named is A498. The description is as above. The method, then: as §1
Assay [17] has as its system SN12C. Kind of assay: AUC of dose-response viability curve, drug alone (arbitrary (AUC of normalised viability)); higher = less growth inhibition. The method, then: as §1
In assay [18] the test system is 769-P. The description is as above. The method, then:
as §1

Assay [19] deals with TK-10. The description is as above. The method, then: as §1
Assay [20] has as its system ACHN. Described as above. The method, then: as §1
Assay [21] has as its system 786-O. Described as above. The method, then:
as §1

In assay [22] the test system is UO-31. The description is as above. The method, then:
as §1

The subject of assay [23] is CAKI-1. The assay is described as above. The method, then:
as §1

Assay [24] concerns A498. The description is as above. The method, then:
as §1

For the molecule `CNC(=O)Nc1ccc(-c2nc(N3CC4CCC(C3)O4)c3cnn(C4CCC5(CC4)OCCO5)c3n2)cc1`, the “GI50, drug alone” value with SN12C [1] is 0.0971 µM; with 769-P [2] it was 0.122 µM; in the assay on TK-10 [3], 0.0812 µM; in the assay with ACHN [4], 0.0587 µM; in the assay with 786-O [5], 0.0414 µM; with UO-31 [6] it was 0.0343 µM. Moreover, the “GI50, drug alone” value turned out to be 0.0567 µM in the assay with CAKI-1 [7] and 0.23 µM with A498 [8]. Also, the “minimum viability across doses” value in the assay on SN12C [9] turned out to be 0.126; in the assay on 769-P [10] it was 0.101; with TK-10 [11], 0.0905; in the assay on ACHN [12] it was 0.0487; in the assay on 786-O [13], 0.00279; in the assay on UO-31 [14], 0.00242. The entries for the “minimum viability across doses” value with CAKI-1 [15] and with A498 [16] were 0.042 and 0.09, respectively. Moreover, the “AUC of dose-response viability curve” value with SN12C [17] came out at 1.64; with 769-P [18], 1.66; in the assay with TK-10 [19], 1.52; with ACHN [20] it was 1.4; in the assay with 786-O [21] it was 1.25; with UO-31 [22], 1.01. Moreover, the “AUC of dose-response viability curve” value in the assay on CAKI-1 [23] was determined as 1.31; with A498 [24], 2.28.

For the molecule `O=C1NC(=O)C(c2ccccc2[N+](=O)[O-])=C1Nc1ccc(O)c(Cl)c1`, the “GI50, drug alone” value in the assay with SN12C [1], with 769-P [2], with TK-10 [3], with ACHN [4], in the assay with 786-O [5] and with UO-31 [6] was > 10 µM throughout. The “GI50, drug alone” value in the assay on CAKI-1 [7] and in the assay on A498 [8] was > 10 µM each time. Further, the “minimum viability across doses” value in the assay on SN12C [9] came out at 0.802; in the assay with 769-P [10] it was 0.898; with TK-10 [11], 0.804; in the assay on ACHN [12], 0.879; in the assay on 786-O [13], 0.559; with UO-31 [14], 0.634. Besides, the “minimum viability across doses” value in the assay on CAKI-1 [15] came to 0.869; with A498 [16] it was 0.922. The “AUC of dose-response viability curve” value in the assay with SN12C [17] is 3.05; in the assay on 769-P [18], 3.29; in the assay on TK-10 [19], 3.02; in the assay on ACHN [20], 3.39; in the assay on 786-O [21], 2.33; with UO-31 [22] it was 4. Further, the “AUC of dose-response viability curve” value with CAKI-1 [23] is 3.4; with A498 [24], 3.58.

With `Nc1nc(N)c2nc(-c3cccc(O)c3)cnc2n1`, the “GI50, drug alone” value with SN12C [1] is 3.88 µM; in the assay on 769-P [2], > 10 µM; in the assay on TK-10 [3] it was 5.11 µM; in the assay with ACHN [4], 5.79 µM; in the assay on 786-O [5] it was 2.47 µM; with UO-31 [6], > 10 µM. Further, the “GI50, drug alone” value is 6.29 µM in the assay with CAKI-1 [7] and 9.22 µM in the assay with A498 [8]. Besides, the “minimum viability across doses” value with SN12C [9] was found to be 0.254; in the assay with 769-P [10], 0.971; in the assay with TK-10 [11], 0.32; with ACHN [12] it was 0.35; in the assay on 786-O [13], 0.0664; in the assay with UO-31 [14] it was 0.588. The “minimum viability across doses” value in the assay on CAKI-1 [15] was 0.275; with A498 [16] it was 0.252. The “AUC of dose-response viability curve” value was found to be 2.97 in the assay on SN12C [17]; 3.59 in the assay with 769-P [18]; 2.98 with TK-10 [19]; 3.02 with ACHN [20]; 2.45 in the assay on 786-O [21]; 4.59 with UO-31 [22]. For the same molecule, the results for the “AUC of dose-response viability curve” value with CAKI-1 [23] and with A498 [24] were 3.43 and 3.31, respectively.

Turning to `CCn1c(N)c(C(=O)NC)c(=O)c2ccc(C#C[C@@](C)(O)COC)nc21`, the “GI50, drug alone” value in the assay with SN12C [1], in the assay on 769-P [2], in the assay with TK-10 [3], with ACHN [4], in the assay with 786-O [5] and in the assay with UO-31 [6] was > 10 µM each time. Moreover, the “GI50, drug alone” value in the assay with CAKI-1 [7] and in the assay on A498 [8] was > 10 µM in each case. Moreover, the “minimum viability across doses” value in the assay on SN12C [9] is 0.849; in the assay on 769-P [10], 1.02; in the assay with TK-10 [11], 0.9; with ACHN [12], 0.909; in the assay with 786-O [13], 0.869; in the assay with UO-31 [14], 0.992. Further, the “minimum viability across doses” value with CAKI-1 [15] was 0.845; in the assay on A498 [16], 0.887. Further, the “AUC of dose-response viability curve” value in the assay with SN12C [17] stood at 3.44; in the assay on 769-P [18], 3.92; in the assay with TK-10 [19], 3.45; in the assay on ACHN [20], 3.52; with 786-O [21], 3.31; in the assay with UO-31 [22] it was 4.24. Also, the “AUC of dose-response viability curve” value is 3.62 in the assay with CAKI-1 [23] and 3.88 in the assay with A498 [24].

Take `Oc1ccc(-c2nc(-c3ccc(F)cc3)c(-c3ccncc3)[nH]2)cc1`: the “GI50, drug alone” value in the assay on SN12C [1] is > 10 µM; in the assay on 769-P [2] it was > 10 µM; in the assay with TK-10 [3] it was > 10 µM; in the assay on ACHN [4], 9.97 µM; with 786-O [5] it was > 10 µM; in the assay on UO-31 [6], > 10 µM. Further, the “GI50, drug alone” value in the assay with CAKI-1 [7] and with A498 [8] was > 10 µM throughout. Also, the “minimum viability across doses” value in the assay with SN12C [9] worked out at 0.936; in the assay with 769-P [10] it was 0.904; with TK-10 [11], 0.659; with ACHN [12], 0.473; with 786-O [13], 0.65; in the assay with UO-31 [14], 0.308. The results for the “minimum viability across doses” value in the assay with CAKI-1 [15] and in the assay with A498 [16] were 0.637 and 1.02, respectively. Also, the “AUC of dose-response viability curve” value in the assay with SN12C [17] amounted to 3.4; in the assay with 769-P [18], 3.41; in the assay with TK-10 [19], 2.88; in the assay with ACHN [20] it was 2.91; in the assay on 786-O [21] it was 3.04; with UO-31 [22], 4.47. The “AUC of dose-response viability curve” value in the assay on CAKI-1 [23] was 3.25; with A498 [24], 4.09.
